Key:
[1] = system: BxPC3 human pancreatic cancer cell line; test: In vitro cell viability (MTT) assay, BxPC3; format: cell-based; conditions: increasing dosages, 96 hours
From the text: In the illustrated example, NIPAAM/VP/AA polymeric nanoparticles in molar ratio of 60:20:20 were used for paclitaxel encapsulation. […] Also included as control in each condition were void polymeric nanoparticle equal to the amount required for encapsulating said dose of nanopaclitaxel (white bar) and solvent (dimethylsulfoxide [DMSO], blue bar) equal to the amount required for dissolving said dose of free paclitaxel. […] Thus, nano-encapsulation of the drug is not associated with loss of drug activity. […] All assays were performed in triplicate and error bars represent standard deviations.
FIG. 9 illustrates in vitro cell viability (MTT assay) performed using the water-soluble drug gemcitabine conjugated to the acrylic acid (AA) surface reactive functional group of polymeric nanoparticle. Unlike the poorly water drugs that are encapsulated within the nanoparticle, water soluble drugs like gemcitabine can be conjugated to the nanoparticle surface, rendering this compound amenable to oral delivery. Human pancreatic cancer cell line BxPC3 is incubated with increasing dosages of either free gemcitabine (black bar), nano-gemcitabine (white bar), void polymer (grey bar), or PBS solvent (patterned bar). UT=untreated. […] All assays were performed in triplicate and means and standard deviations are plotted. […]

[2] = Solubilization in water, visual (turbidity, floating particles vs transparent solution); format: physicochemical; conditions: equivalent amounts of free and nanoparticle-encapsulated drug
[3] = Blood levels of rapamycin 2 hours after oral delivery (HPLC); format: in vivo, C57/B6 wild type mice; conditions: 15 mg/kg rapamycin or equivalent, 2 hours post delivery
From the text: FIG. 10 illustrates blood levels of rapamycin following oral delivery of polymeric nanoparticles. Rapamycin was encapsulated in nanoparticles comprised of increasing order of acrylic acid (AA) percentage in the co-polymeric composition. The nanoparticles were either administered as is, or after surface PEGylation. Compared are: Control A (rapamycin suspended in water); rapamycin nanoparticle comprised of NIPAAM:VP:AA in a ratio of 60:30:10 (designated as NVA631); rapamycin nanoparticle comprised of NIPAAM:VP:AA in a ratio of 60:20:20 (designated as NVA622); rapamycin nanoparticle comprised of NIPAAM:VP:AA in a ratio of 60:10:30 (designated as NVA613); and rapamycin nanoparticle comprised of NIPAAM:MMA:AA in a ratio of 60:20:20 (designated as NMA622). The corresponding PEGylated nanoparticles (PEG-NVA-631, PEG-NVA-622, PEG-NVA-613, and PEG-NMA-622) encapsulating rapamycin are designated as shaded bars. […] Blood levels are measured by HPLC from samples obtained at 2 hours post oral delivery.
Rapamycin is a poorly water soluble drug that has low oral bioavailability. […] At 2 hours post oral administration, the mice were bled and rapamycin concentrations in the blood were determined by high performance liquid chromatography (HPLC). […]

| SMILES | activity in cell viability assay, free vs nano-gemcitabine [1] | solubility in water (appearance of solution) [2] | blood level of rapamycin [3] |
| --- | --- | --- | --- |
| Nc1ccn([C@@H]2O[C@H](CO)[C@@H](O)C2(F)F)c(=O)n1 [free gemcitabine, gemcitabine] | comparable activity | – | – |
| CC(=O)O[C@H]1C(=O)[C@@]2(C)[C@H]([C@H](OC(=O)c3ccccc3)[C@]3(O)C[C@H](OC(=O)[C@H](O)[C@@H](NC(=O)c4ccccc4)c4ccccc4)C(C)=C1C3(C)C)[C@]1(OC(C)=O)CO[C@@H]1C[C@@H]2O [free paclitaxel, paclitaxel] | – | essentially insoluble in water | – |
| CO[C@H]1C[C@@H]2CC[C@@H](C)[C@@](O)(O2)C(=O)C(=O)N2CCCC[C@H]2C(=O)O[C@H]([C@H](C)C[C@@H]2CC[C@@H](O)[C@H](OC)C2)CC(=O)[C@H](C)/C=C(\C)[C@@H](O)[C@@H](OC)C(=O)[C@H](C)C[C@H](C)/C=C/C=C/C=C/1C [free rapamycin, rapamycin] | – | essentially insoluble in water | essentially undetectable |
| CO[C@H]1/C=C/O[C@@]2(C)Oc3c(C)c(O)c4c(O)c(c(/C=N/N5CCN(C)CC5)c(O)c4c3C2=O)NC(=O)/C(C)=C\C=C\[C@H](C)[C@H](O)[C@@H](C)[C@@H](O)[C@@H](C)[C@H](OC(C)=O)[C@@H]1C [free rifampicin, rifampicin] | – | essentially insoluble in water | – |
